Measurements taken from EP2357172B1, “Process for the preparation of pimozide” (Institut Univ. de Ciència i Tecnologia, S.A., priority 2006, dated 2008).

How the values were obtained:
rats [1] = conditions: cited from earlier work
rats [2] = assay: Oral lethal dose (LD50) in rats, from safety data sheets; format: in vivo; conditions: glycerol formal compared with MIBK
Description: The data for MIBK were obtained from the International Chemical Safety Card published by "Instituto Nacional de Seguridad e Higiene en el Trabajo" (National Institute for Occupational Safety and Hygiene). The data for glycerol formal were obtained from the most recent manufacturer's standard safety data sheet.

[3] = cited from earlier work

Molecule | LD50(oral-rats, g/kg) (rats [1]) | lethal dose in rats (ingestion) relative to MIBK (rats [2]) | Solubility in H2O (g/L) [3]
CC(=O)CC(C)C [MIBK, methylisobutylketone] | 2.1 g/kg |  | 
GLYCEROL FORMAL | 10 g/kg | five times higher | Miscible in all proportions
